The record followed here is paper PMC9004346, “Development of small cyclic peptides targeting the CK2α/β interface” (Chemical Communications (Cambridge, England), 2022).

The nature of series [1]: MTT cell viability assay in HeLa cells. Format: cell-based. As to conditions: human. The method, then: (§1) HeLa cells were maintained in 5% CO2 in DMEM supplemented with 10% FBS, 2 mM L-glutamine, 100 U/mL penicillin and […] streptomycin, in an atmosphere containing 5% CO2.
(§2) Cells were regularly passed and used for experiments within one month after thawing (10-15 […]
(§3) 1.6.2 Cell viability assay
(§4) Cell viability was assayed by 3-(4,5-dimethylthiazol-2-yl)-2,5-diphenyltetrazolium bromide (MTT) colorimetric assay. HeLa cells were plated on 96-well plates (20,000 cells per well in 100 μL). After 24 h, cells were treated with different concentrations of test compounds or vehicle alone (DMSO). One hour before the end of the incubations, 10 μL of MTT solution (5 mg/mL in PBS) were added to each well. Formazan crystals (proportional to the number of viable cells) were then dissolved by the addition of 20 μL/well of a pH 4.7 solution containing 20% (w:v) SDS, 50% (v:v) N,N-dimethylformamide, 2% (v:v) acetic acid, and 25 mM HCl, and quantified by recording the absorbance at 570 nm using an Infinite M200 PRO plate reader (TECAN, Life Sciences). […]

In another series the test system is HeLa cells. Kind of series: MTT cell viability assay in HeLa cells. Type of series: cell-based. As to conditions: HeLa cells, MTT, 48 h. The method, then: as §1, §2, §3, §4
Series [2] is described as follows: Solubility observations during FP and ITC testing. Type of series: physicochemical. As to conditions: observed during FP or ITC testing.
The next series in a line: Serum stability test. As to conditions: 20% human serum in PBS, 37 °C, monitored over 24 h. Type of series: in vitro ADME. The method, then:
1.6.3 Serum stability test
500 μL of PBS buffer supplemented with 20% (v/v) of human serum was allocated into an Eppendorf tube and temperature kept at 37 °C for 15 minutes before commencing the experiment. 5 µL of the peptide from 10 mM stock solution in DMSO was added. Caffeine was added as an internal standard (10 μL of a 15 mg/mL solution in MQ water). At specific intervals, 50 µL of the reaction mixture was taken and quenched with 100 µL of a 1:1 mixture of 96% Ethanol:DMSO. The suspension was spun at 13400 g for 10 minutes. 100 μL of the supernatant was analysed using C-18 HPLC with an eluting gradient 5-95% MeCN (0.05% TFA) in water (0.05% TFA) over 15 minutes (90 μL injection volume).
Percentage of intact starting peptide was monitored over 24 h (calculated as the ratio of the area of […]
the peak corresponding to the intact peptide to the area of the peak of caffeine). The experiment was […]
1 M. M. Wiedmann, Y. S. Tan, Y. Wu, S. Aibara, W. Xu, H. F. Sore, C. S. Verma, L. Itzhaki, M.
Stewart, J. D. Brenton and D. R. Spring, Angew. Chemie Int. Ed., 2017, 56, 524–529.
3 G. T. Potter, G. C. Jayson, G. J. Miller and J. M. Gardiner, J. Org. Chem., 2016, 81, 3443–3446.
4 J. Iegre, P. Brear, D. J. Baker, Y. S. Tan, E. L. Atkinson, H. F. Sore, D. H. O’ Donovan, C. S. Verma,
7 C. Puig Duran, F. Albericio Palomera, M. Gongora Benitez, M. Paradis Bas, L. Miret Casals, I. […]

Each structure is given as a SMILES string. Read-outs that look alike come from different tables or passages of the source. *1 amine or outer side, *2 acyl side, *3 side chain or, on linkers, in order; H or OH if unused. Where a SMILES comes first, the peptide text is derived from it. Bridges are numbered along the chain shown (N, C = ends). Side-chain parts run from the residue outwards. [ ]: non-standard residue; d: D form. The star is where a group is joined. Trp(2-yl) = O=C([C@H](Cc1c([*:3])[nH]c2ccccc12)N[*:1])[*:2]; Lauroyl = CCCCCCCCCCCC(=O)*; hCys = N[C@@H](CCS)C(=O)O; AEEA = NCCOCCOCC(=O)O; Ahx = NCCCCCC(=O)O

In series [1], `CC(C)C[C@@H]1NC(=O)[C@H](CCCNC(=N)N)NC(=O)[C@@H](NC(=O)CCCCCNC(=O)CCCCCNC(=O)[C@H](CCCNC(=N)N)NC(=O)[C@H](CCCNC(=N)N)NC(=O)[C@@H](N)CCCNC(=N)N)CCSc2[nH]c3ccccc3c2C[C@@H](C(N)=O)NC(=O)[C@H](CCCCN)NC(=O)[C@H](Cc2ccccc2)NC(=O)CNC(=O)[C@H](Cc2ccc(O)cc2)NC1=O` [Peptide R3-P8C9] (H-RRR[Ahx][Ahx][hCys]RLYGFK[Trp(2-yl)]-NH2; thioether 6-13) yielded a viability at 48 h, 50 µM of 66 ± 5% and a viability at 48 h, 100 µM of 54 ± 4%. Besides, the “Effect on cell viability (in words)” value in the series on HeLa cells was “large reduction in cell viability”.

As to `CCCCCCCCCCCC(=O)NCCOCCOCC(=O)NCCCC[C@@H]1NC(=O)[C@H](Cc2ccccc2)NC(=O)CNC(=O)[C@H](Cc2ccc(O)cc2)NC(=O)[C@H](CC(C)C)NC(=O)[C@H](CCCNC(=N)N)NC(=O)[C@@H](NC(C)=O)CCSc2[nH]c3ccccc3c2C[C@@H](C(N)=O)NC1=O` [P8C9[FA]] (Ac-[hCys]RLYGFK([AEEA-Lauroyl])[Trp(2-yl)]-NH2; thioether 1-8), the “Solubility (observation in words)” value in series [2] is on record as “Precipitation”.

Turning to `CC(C)C[C@@H]1NC(=O)[C@H](CCCNC(=N)N)NC(=O)[C@@H](NC(=O)CCCCCNC(=O)CCCCCNC(=O)[C@H](CCC(N)=O)NC(=O)[C@@H]2CCCN2C(=O)[C@@H]2CCCN2C(=O)[C@H](CCCNC(=N)N)NC(=O)[C@H](CCCNC(=N)N)NC(=O)[C@H](CCCNC(=N)N)NC(=O)[C@H](CCC(N)=O)NC(=O)[C@H](CCCNC(=N)N)NC(=O)[C@H](CCCNC(=N)N)NC(=O)[C@H](CCCCN)NC(=O)[C@H](CCCCN)NC(=O)[C@H](CCCNC(=N)N)NC(=O)CN)CCSc2[nH]c3ccccc3c2C[C@@H](C(N)=O)NC(=O)[C@H](CCCCN)NC(=O)[C@H](Cc2ccccc2)NC(=O)CNC(=O)[C@H](Cc2ccc(O)cc2)NC1=O` [TAT-P8C9] (H-GRKKRRQRRRPPQ[Ahx][Ahx][hCys]RLYGFK[Trp(2-yl)]-NH2; thioether 16-23), the viability at 48 h, 50 µM in series [1] (HeLa cells, 48 h, 50 μM compound, ±standard deviation, read-out: Cell viability (%) 50 μM compound) stood at 66 ± 4%. Further, in series [1] (HeLa cells, 48 h, 100 μM compound, ±standard deviation, read-out: Cell viability (%) 100 μM compound), the viability at 48 h, 100 µM was 26 ± 7%. The “Effect on cell viability (in words)” value in the series with HeLa cells is recorded as “large reduction in cell viability”.

On to `CC(=O)N[C@@H](CCS)C(=O)N[C@@H](CCCNC(=N)N)C(=O)N[C@@H](CC(C)C)C(=O)N[C@@H](Cc1ccc(O)cc1)C(=O)NCC(=O)N[C@@H](Cc1ccccc1)C(=O)N[C@@H](CCCCN)C(=O)N[C@@H](Cc1c[nH]c2ccccc12)C(N)=O` [Peptide P8] (Ac-[hCys]RLYGFKW-NH2), for which, in the series “Serum stability test”, the “Serum stability (in words)” value is “fully had degraded after 1 h”.

The viability is the share of living cells, or the viability signal relative to a control.
